Experiments:
Experiment in all cases: KINOMEscan competition binding
Details in all cases: compound 1.0 µM
STK16 (human) = STK16 (human) (UniProt O75716)
STK33 (human) = STK33 (human) (UniProt Q9BYT3)
ABL2 (human) = ABL2 (human) (UniProt P42684)
BMPR2 (human) = BMPR2 (human) (UniProt Q13873)
EIF2AK2 (human) = EIF2AK2 (human) (UniProt P19525)
CDK2 (human) = CDK2 (human) (UniProt P24941)
[1] = test system: EGFR (human), P00533 [G719S]
LATS1 (human) = LATS1 (human) (UniProt O95835)
MARK3 (human) = MARK3 (human) (UniProt P27448)
PRKD2 (human) = PRKD2 (human) (UniProt Q9BZL6)
SLK (human) = SLK (human) (UniProt Q9H2G2)
PAK3 (human) = PAK3 (human) (UniProt O75914)
MAP3K11 (human) = MAP3K11 (human) (UniProt Q16584)
ULK3 (human) = ULK3 (human) (UniProt Q6PHR2)
CIT (human) = CIT (human) (UniProt O14578)
MAP3K1 (human) = MAP3K1 (human) (UniProt Q13233)
CHEK2 (human) = CHEK2 (human) (UniProt O96017)
ITK (human) = ITK (human) (UniProt Q08881)
AKT3 (human) = AKT3 (human) (UniProt Q9Y243)
MAPK15 (human) = MAPK15 (human) (UniProt Q8TD08)
PRKACA (human) = PRKACA (human) (UniProt P17612)
BRSK1 (human) = BRSK1 (human) (UniProt Q8TDC3)
TGFBR1 (human) = TGFBR1 (human) (UniProt P36897)
RET (human) = RET (human) (UniProt P07949)
MST4 (human) = MST4 (human) (UniProt Q9P289)
ULK2 (human) = ULK2 (human) (UniProt Q8IYT8)
[2] = test system: EGFR (human), P00533 [T790M/L858R]
CAMK2B (human) = CAMK2B (human) (UniProt Q13554)
CLK4 (human) = CLK4 (human) (UniProt Q9HAZ1)
STK35 (human) = STK35 (human) (UniProt Q8TDR2)
ADCK3 (human) = ADCK3 (human) (UniProt Q8NI60)
CDKL3 (human) = CDKL3 (human) (UniProt Q8IVW4)
FYN (human) = FYN (human) (UniProt P06241)
PTK2 (human) = PTK2 (human) (UniProt Q05397)
HIPK1 (human) = HIPK1 (human) (UniProt Q86Z02)
MST1R (human) = MST1R (human) (UniProt Q04912)
CAMK2G (human) = CAMK2G (human) (UniProt Q13555)
MERTK (human) = MERTK (human) (UniProt Q12866)
MAP3K7 (human) = MAP3K7 (human) (UniProt O43318)
DDR2 (human) = DDR2 (human) (UniProt Q16832)
WEE1 (human) = WEE1 (human) (UniProt P30291)

Chain of STK35 (human) (Q8TDR2 whole entry, looked up): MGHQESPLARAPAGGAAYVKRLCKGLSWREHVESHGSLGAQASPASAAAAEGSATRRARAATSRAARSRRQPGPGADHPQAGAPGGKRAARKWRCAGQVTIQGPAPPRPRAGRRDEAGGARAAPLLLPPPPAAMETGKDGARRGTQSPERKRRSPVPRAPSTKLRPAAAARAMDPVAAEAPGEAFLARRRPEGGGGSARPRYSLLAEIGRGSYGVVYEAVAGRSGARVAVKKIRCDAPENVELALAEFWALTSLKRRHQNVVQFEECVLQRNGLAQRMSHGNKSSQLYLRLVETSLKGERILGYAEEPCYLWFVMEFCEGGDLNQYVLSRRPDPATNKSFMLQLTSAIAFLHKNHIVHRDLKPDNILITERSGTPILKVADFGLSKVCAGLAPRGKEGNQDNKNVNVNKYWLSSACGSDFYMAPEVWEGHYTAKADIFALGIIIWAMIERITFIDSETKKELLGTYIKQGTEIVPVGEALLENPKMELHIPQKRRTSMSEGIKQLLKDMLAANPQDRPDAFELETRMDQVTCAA
Chain of CAMK2B (human) (Q13554 whole entry, looked up): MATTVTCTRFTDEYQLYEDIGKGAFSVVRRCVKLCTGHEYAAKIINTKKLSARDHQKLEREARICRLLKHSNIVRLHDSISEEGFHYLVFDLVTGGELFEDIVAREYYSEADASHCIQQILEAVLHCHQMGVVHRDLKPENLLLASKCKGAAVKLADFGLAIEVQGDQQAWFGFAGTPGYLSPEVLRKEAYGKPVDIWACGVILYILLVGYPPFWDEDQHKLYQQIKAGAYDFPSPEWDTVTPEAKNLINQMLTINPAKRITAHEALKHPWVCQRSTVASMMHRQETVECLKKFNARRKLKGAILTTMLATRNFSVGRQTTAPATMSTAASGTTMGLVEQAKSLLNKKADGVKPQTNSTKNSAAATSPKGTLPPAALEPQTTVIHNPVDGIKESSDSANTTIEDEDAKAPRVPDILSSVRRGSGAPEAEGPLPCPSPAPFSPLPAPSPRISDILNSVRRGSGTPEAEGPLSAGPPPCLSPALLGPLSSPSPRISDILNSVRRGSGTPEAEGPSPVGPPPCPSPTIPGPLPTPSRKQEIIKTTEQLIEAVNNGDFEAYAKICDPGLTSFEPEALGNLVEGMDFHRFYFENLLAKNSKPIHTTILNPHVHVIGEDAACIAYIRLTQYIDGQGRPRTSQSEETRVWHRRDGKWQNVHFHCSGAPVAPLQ
Chain of STK16 (human) (O75716 whole entry, looked up): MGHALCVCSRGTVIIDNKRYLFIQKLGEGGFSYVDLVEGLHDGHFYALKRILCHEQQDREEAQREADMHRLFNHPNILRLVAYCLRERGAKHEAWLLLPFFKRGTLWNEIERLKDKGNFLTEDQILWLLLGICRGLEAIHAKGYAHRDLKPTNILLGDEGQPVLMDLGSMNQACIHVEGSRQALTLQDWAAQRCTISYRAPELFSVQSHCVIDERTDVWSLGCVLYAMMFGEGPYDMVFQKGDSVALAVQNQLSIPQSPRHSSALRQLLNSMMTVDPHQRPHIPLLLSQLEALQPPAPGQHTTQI
Chain of PTK2 (human) (Q05397 whole entry, looked up): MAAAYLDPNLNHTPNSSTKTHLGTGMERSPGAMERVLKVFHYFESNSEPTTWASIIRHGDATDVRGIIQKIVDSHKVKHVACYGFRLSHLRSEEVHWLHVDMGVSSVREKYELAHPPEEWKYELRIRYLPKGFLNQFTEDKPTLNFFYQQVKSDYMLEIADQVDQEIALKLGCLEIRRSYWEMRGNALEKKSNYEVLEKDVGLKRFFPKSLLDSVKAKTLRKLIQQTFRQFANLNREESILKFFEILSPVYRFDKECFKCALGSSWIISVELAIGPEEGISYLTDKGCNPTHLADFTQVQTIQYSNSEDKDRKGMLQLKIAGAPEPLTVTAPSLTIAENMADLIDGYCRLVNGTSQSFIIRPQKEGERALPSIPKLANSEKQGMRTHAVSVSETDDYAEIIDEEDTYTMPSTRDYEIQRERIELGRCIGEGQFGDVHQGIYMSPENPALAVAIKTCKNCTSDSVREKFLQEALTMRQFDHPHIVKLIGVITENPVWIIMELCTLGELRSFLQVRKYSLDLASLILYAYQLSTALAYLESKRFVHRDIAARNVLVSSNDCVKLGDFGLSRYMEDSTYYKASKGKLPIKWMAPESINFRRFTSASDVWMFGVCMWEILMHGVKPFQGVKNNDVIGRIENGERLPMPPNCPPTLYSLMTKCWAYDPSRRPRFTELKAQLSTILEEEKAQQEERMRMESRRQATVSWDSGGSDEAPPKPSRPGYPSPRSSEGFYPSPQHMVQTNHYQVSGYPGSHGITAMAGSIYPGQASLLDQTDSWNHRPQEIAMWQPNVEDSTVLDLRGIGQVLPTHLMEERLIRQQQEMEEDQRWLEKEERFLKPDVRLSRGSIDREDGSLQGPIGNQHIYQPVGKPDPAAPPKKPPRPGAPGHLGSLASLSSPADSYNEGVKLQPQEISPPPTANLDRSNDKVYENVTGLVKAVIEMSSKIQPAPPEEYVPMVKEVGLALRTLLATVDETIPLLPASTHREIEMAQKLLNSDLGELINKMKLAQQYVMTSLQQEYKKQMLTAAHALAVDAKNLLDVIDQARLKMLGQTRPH
Chain of ABL2 (human) (P42684 whole entry, looked up): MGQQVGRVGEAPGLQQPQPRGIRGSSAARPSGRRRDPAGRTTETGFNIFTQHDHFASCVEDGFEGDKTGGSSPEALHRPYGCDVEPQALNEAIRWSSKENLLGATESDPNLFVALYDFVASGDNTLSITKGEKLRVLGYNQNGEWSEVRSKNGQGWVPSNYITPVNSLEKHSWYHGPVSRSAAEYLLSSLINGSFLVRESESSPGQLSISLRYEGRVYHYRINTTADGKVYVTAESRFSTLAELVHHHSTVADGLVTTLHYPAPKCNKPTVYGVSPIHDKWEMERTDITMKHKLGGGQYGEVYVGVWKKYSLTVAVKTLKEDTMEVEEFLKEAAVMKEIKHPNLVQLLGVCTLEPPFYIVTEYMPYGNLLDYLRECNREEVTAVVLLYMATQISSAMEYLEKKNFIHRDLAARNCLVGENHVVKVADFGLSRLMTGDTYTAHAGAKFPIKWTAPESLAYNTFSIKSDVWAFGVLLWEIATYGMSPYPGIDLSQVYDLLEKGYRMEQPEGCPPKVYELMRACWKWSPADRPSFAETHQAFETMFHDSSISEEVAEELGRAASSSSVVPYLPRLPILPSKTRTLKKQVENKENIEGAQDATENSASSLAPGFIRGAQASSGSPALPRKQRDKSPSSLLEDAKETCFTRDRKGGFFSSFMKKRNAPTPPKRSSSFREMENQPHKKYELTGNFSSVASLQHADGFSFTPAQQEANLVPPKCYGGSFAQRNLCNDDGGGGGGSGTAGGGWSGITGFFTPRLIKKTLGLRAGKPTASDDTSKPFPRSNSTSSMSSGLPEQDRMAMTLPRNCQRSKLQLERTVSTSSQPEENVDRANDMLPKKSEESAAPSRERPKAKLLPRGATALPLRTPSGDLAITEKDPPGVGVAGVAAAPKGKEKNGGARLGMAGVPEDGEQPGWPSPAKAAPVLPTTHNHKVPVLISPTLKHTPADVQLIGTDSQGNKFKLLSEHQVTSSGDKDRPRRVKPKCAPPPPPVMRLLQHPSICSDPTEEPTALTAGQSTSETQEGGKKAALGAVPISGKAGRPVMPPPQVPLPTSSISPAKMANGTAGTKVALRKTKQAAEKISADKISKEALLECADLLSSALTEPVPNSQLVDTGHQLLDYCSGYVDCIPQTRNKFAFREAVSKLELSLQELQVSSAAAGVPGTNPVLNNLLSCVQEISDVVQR
Chain of MAPK15 (human) (Q8TD08 whole entry, looked up): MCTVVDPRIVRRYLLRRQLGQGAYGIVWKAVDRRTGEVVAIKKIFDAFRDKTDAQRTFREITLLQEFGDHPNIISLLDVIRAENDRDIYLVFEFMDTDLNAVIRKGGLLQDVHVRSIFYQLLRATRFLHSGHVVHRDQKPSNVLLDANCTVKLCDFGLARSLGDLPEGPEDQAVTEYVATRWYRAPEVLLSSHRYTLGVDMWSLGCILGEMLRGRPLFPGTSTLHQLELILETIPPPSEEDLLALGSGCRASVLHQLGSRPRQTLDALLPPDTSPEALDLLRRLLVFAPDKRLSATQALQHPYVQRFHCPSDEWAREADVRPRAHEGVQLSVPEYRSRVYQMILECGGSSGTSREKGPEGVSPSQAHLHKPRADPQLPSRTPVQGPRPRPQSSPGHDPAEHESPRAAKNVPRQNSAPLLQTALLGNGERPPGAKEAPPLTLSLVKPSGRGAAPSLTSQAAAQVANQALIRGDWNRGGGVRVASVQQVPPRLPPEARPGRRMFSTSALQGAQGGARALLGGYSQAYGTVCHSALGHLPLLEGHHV
Chain of PAK3 (human) (O75914 whole entry, looked up): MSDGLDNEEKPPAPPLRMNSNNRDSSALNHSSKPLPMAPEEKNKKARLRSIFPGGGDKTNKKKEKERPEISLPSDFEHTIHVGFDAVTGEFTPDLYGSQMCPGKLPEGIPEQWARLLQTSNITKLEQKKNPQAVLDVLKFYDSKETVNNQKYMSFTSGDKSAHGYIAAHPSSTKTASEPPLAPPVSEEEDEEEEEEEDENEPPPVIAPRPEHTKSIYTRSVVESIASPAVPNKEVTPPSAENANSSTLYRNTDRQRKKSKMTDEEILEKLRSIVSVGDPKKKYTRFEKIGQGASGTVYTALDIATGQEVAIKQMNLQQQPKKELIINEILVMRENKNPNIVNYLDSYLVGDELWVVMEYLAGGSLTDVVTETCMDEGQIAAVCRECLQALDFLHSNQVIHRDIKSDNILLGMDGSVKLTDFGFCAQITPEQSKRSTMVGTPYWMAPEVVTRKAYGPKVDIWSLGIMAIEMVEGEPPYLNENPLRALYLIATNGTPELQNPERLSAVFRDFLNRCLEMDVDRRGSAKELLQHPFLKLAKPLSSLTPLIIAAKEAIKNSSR

Nc1cc(C(F)(F)F)c(-c2cc(N3CCOCC3)nc(N3CCOCC3)n2)cn1
inhibition of binding (STK16 (human)): 0% | inhibition of binding (STK33 (human)): 0% | inhibition of binding (ABL2 (human)): 0% | inhibition of binding (BMPR2 (human)): 0% | inhibition of binding (EIF2AK2 (human)): 19% | inhibition of binding (CDK2 (human)): 30% | inhibition of binding [1]: 10% | inhibition of binding (LATS1 (human)): 4% | inhibition of binding (MARK3 (human)): 0% | inhibition of binding (PRKD2 (human)): 38% | inhibition of binding (SLK (human)): 0% | inhibition of binding (PAK3 (human)): 0% | inhibition of binding (MAP3K11 (human)): 0% | inhibition of binding (ULK3 (human)): 17% | inhibition of binding (CIT (human)): 0% | inhibition of binding (MAP3K1 (human)): 0% | inhibition of binding (CHEK2 (human)): 0% | inhibition of binding (ITK (human)): 0% | inhibition of binding (AKT3 (human)): 0% | inhibition of binding (MAPK15 (human)): 2% | inhibition of binding (PRKACA (human)): 0% | inhibition of binding (BRSK1 (human)): 0% | inhibition of binding (TGFBR1 (human)): 4% | inhibition of binding (RET (human)): 8% | inhibition of binding (MST4 (human)): 0% | inhibition of binding (ULK2 (human)): 0% | inhibition of binding [2]: 0% | inhibition of binding (CAMK2B (human)): 18% | inhibition of binding (CLK4 (human)): 70% | inhibition of binding (STK35 (human)): 0% | inhibition of binding (ADCK3 (human)): 4% | inhibition of binding (CDKL3 (human)): 0% | inhibition of binding (FYN (human)): 0% | inhibition of binding (PTK2 (human)): 21% | inhibition of binding (HIPK1 (human)): 0% | inhibition of binding (MST1R (human)): 0% | inhibition of binding (CAMK2G (human)): 0% | inhibition of binding (MERTK (human)): 0% | inhibition of binding (MAP3K7 (human)): 5% | inhibition of binding (DDR2 (human)): 19% | inhibition of binding (WEE1 (human)): 2%
